Experimental data from patent publication US20260098008A1, “COVALENT, CHEMOGENETIC ACTIVATORS FOR K2P POTASSIUM CHANNELS AND USES THEREOF” (THE REGENTS OF THE UNIVERSITY OF CALIFORNIA, priority 2022, published 2026).

Legend:
Experiment in all cases: TEVC in Xenopus oocytes
Type in all cases: cell-based
K2P10.1 (TREK-2)^CG* = molecular target: T1, K2P10.1 (TREK-2)^CG* (Mus musculus, UniProt Q8BUW1, S153C); details: 20 μM, Xenopus oocytes
T1 construct: Modified TREK-2 from Mus musculus; expressed in transfected cells; host or cells: Xenopus laevis oocytes injected with mRNA
T1 sequence (Q8BUW1 with tags, fused parts or gaps S153C): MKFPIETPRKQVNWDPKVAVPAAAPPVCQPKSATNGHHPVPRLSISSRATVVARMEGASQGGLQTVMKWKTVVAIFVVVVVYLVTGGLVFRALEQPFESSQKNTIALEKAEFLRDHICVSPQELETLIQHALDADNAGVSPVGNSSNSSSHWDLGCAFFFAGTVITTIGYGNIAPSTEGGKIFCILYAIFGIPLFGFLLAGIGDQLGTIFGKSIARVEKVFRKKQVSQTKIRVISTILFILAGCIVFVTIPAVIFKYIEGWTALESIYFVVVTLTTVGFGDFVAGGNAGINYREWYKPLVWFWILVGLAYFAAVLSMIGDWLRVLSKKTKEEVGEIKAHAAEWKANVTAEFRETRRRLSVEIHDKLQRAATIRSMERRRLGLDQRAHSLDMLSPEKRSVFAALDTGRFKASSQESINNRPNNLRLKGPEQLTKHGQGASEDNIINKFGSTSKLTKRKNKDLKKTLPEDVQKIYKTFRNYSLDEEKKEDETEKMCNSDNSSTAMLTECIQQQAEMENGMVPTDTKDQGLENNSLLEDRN

K2P18.1 (TRESK)^CG* = molecular target: T2, K2P18.1 (TRESK)^CG* (Mus musculus, UniProt Q6VV64, S116C); details: 20 μM
T2 construct: expressed in transfected cells; host or cells: Xenopus laevis oocytes injected with mRNA
T2 sequence (Q6VV64 1-394 S116C): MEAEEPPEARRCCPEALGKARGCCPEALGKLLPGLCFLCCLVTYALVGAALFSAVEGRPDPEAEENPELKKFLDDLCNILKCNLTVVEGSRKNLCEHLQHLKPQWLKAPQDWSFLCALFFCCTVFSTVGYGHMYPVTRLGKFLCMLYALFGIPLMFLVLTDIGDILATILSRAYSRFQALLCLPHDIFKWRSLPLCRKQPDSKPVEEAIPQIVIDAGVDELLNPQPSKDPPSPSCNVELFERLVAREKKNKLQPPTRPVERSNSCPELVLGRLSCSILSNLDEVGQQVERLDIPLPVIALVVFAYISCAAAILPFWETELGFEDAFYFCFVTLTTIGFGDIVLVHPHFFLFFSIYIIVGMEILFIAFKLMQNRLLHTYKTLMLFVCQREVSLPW

K2P2.1 (TREK-1) S131A = molecular target: T3, K2P2.1 (TREK-1) S131A (Mus musculus, UniProt P97438, S146A); details: 20 μM, 0 mV
T3 construct: expressed in transfected cells; host or cells: Xenopus laevis oocytes injected with mRNA
T3 sequence (P97438 1-411 isoform P97438-2 S131A): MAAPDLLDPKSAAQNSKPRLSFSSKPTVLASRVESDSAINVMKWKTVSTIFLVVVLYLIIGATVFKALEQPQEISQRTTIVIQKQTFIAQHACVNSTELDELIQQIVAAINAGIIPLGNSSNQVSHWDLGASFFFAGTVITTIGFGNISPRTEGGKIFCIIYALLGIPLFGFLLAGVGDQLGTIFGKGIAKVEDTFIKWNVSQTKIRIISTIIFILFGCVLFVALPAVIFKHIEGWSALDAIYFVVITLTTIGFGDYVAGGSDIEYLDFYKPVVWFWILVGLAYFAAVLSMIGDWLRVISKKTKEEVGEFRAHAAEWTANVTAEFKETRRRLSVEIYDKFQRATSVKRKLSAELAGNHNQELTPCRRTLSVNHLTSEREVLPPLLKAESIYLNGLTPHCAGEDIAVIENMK

Row | SMILES | Fold-activation (I activator/I control) (K2P10.1 (TREK-2)^CG*; 0 mV) | Reversibility of activation (K2P10.1 (TREK-2)^CG*) | Activation of channel (K2P18.1 (TRESK)^CG*) | Fold-activation (I activator/I control) (K2P2.1 (TREK-1) S131A)
1 | O=C(NCc1ccc(Cl)cc1Cl)c1ccc(N2C(=O)C=CC2=O)cc1 [CAT335] | 18±2 fold | irreversibly activated | not activated | 
2 | CS(=O)(=O)Nc1ccc(C(=O)NCc2ccc(Cl)cc2Cl)cc1 [ML335, reference compound] |  |  |  | 6.8 fold
